Values quoted from earlier work as cited in patent US10342775B2, “Vitamin A for parenteral administration” (FRESENIUS KABI DEUTSCHLAND GMBH, priority 2015, dated 2019).

solubility in water: practically insoluble in water
Structure (SMILES): CCCCCCCCCCCCCCCC(=O)OC/C=C(C)/C=C/C=C(C)/C=C/C1=C(C)CCCC1(C)C [retinol palmitate]
